Results from patent US20100062078A1, “PHARMACEUTICAL COMPOSITION FOR TREATING CANCER AND THE SIGNALING PATHWAY THEREOF” (priority 2008, published 2010).

Tests used:
T47D = experiment: XTT cell proliferation assay (cytotoxicity); assay type: cell-based; conditions: Homo sapiens; breast cancer cell line T47D
Procedure: (§1) Cells were seeded at 7×10^3 per well in 96-well culture plates before treatment with different concentrations of protoapigenone for 12, 24 and/or 48 hours. Next, the cytotoxicity of protoapigenone was determined using XTT cell proliferation assay (Sigma, St. Louis, Mo.). The absorbance of wavelength at 490 nm (OD490) and 650 nm (OD650) were determined respectively by enzyme-linked immunosorbent assay (ELISA) reader, and 50% of inhibitory concentration (IC50) was calculated by the value of OD490-OD650. In addition, in order to evaluate the long-term effect, the cells were treated with different concentration of protoapigenone for 3 hours, then were incubated with fresh medium for 14 days so as to form colonies. Finally, the cells were stained with crystal violet and were observed under the microscope.

MDA-MB-468 = experiment: XTT cell proliferation assay (cytotoxicity); assay type: cell-based; conditions: Homo sapiens; breast cancer cell line MDA-MB-468
Procedure: as §1

SKOV3 [1] = experiment: XTT cell proliferation assay (cytotoxicity); assay type: cell-based; conditions: Homo sapiens, SK-OV-3; ovarian cancer cell line SKOV3
Procedure: as §1

[2] = XTT cell proliferation assay (cytotoxicity); assay type: cell-based
Procedure: as §1

HeLa [3] = experiment: XTT cell proliferation assay (cytotoxicity); assay type: cell-based; conditions: Homo sapiens; cervical cancer cell line HeLa
Procedure: as §1

C33A = experiment: XTT cell proliferation assay (cytotoxicity); assay type: cell-based; conditions: Homo sapiens, C-33-A; cervical cancer cell line C33A
Procedure: as §1

HeLa [4] = experiment: Cell cycle distribution; assay type: cell-based, human
LNCap = experiment: TUNEL assay; assay type: cell-based, human; conditions: LNCap, 2.5, 5 and 10 μM, 12 or 24 hours
Procedure: TUNEL assay is performed to detect whether cellular DNA is fragmented. The prostate cancer cells were treated with protoapigenone at various concentrations (2.5, 5 and 10 μM) for 12 or 24 hours, then were stained with TUNEL using the DeadEnd Colorimetric TUNEL system (Promega, Madison, Wis.). In brief, the prostate cancer cells were fixed with 4% paraformaldehyde for 30 minutes after protoapigenone treatment. Next, the fixed cells were incubated with digoxigenin-conjugated dUTP and nucleotide mixture in a recombinant terminal deoxynucleotide transferase-catalyzed reaction in the humidified atmosphere at 37° C. Subsequently, they were immersed in the stop buffer for 15 minutes at 37° C. The Cells were washed with PBS, then were incubated in DAB solutions for 15 minutes in dark. The stained cells were observed under the microscope. The percentage of TUNEL-positive cells were counted in 1000 cells, and the apoptosis index in the later period was calculated.

MDAH-2774 [5] = experiment: Clonogenic assay (colony formation); assay type: cell-based, human; conditions: 3 hours treatment, 14 days in fresh medium
Procedure: as §1

LNCap cells = experiment: Cell cycle analysis (PI flow cytometry); assay type: cell-based, human; conditions: 6 hours and 12 hours
Procedure: (§2) The ovarian cancer cells and the prostate cancer cells respectively were treated with protoapigenone at different concentrations (0, 2.5, 5 and 10 μM) for 24 hours and 6 hours (or 12 hours). These cells were harvested by trypsin and fixed with 70% ethanol for 1 hour, washed with phosphate buffered saline (PBS) twice, and resuspended in propidium iodide (PI)/RNase A solution for 30 minutes. In accordance with the mechanism of DNA stained with propidium iodide, the cell cycle and sub-G1 distribution were detected by the FACScan flow cytometry (Becton Dickinson, San Jose, Calif.), and data analysis was done with CellQuest software (BD Bioscience).

SKOV3 [6] = experiment: Cell cycle and sub-G1 analysis (PI flow cytometry); assay type: cell-based, human; conditions: SKOV3, 24 hours
Procedure: as §2

MDAH-2774 [7] = experiment: Cell cycle and sub-G1 analysis (PI flow cytometry); assay type: cell-based, human; conditions: MDAH-2774, 24 hours
Procedure: as §2

[8] = system: MDAH-2774 human ovarian cancer cells; experiment: Nude mice xenograft model, tumor growth; assay type: in vivo; conditions: low dose (0.069 μM/g) and high dose (0.69 μM/g) i.p. every other day, 7-week treatment
Procedure: MDAH-2774 human ovarian cancer cells of 2×10^6 (or LNCap prostate cancer cells of 1×10^6) in 0.1 ml PBS were injected subcutaneously at the right flank of 6-week-old female nude mice (Foxnlun/Foxulun). When tumors became visible (approximately 3×3 mm in size), the mice were randomly grouped and treated intraperitoneally with protoapigenone or vehicle every other day. […] Tumor size and body weight were measured twice a week using calipers, and their tumor volumes were calculated according to a standard formula: width^2×length/2. After treatment with protoapigenone for 5 weeks, the mice xenografted with LNCap cells were sacrificed by deep anesthesia, and the blood sampling by cardiac aspiration was done immediately after anesthesia. Complete blood count of the nude mice blood was determined by Sysmex XE-2100 (TOA Medical Electronics, Kobe, Japan), and the plasma blood urea nitrogen (BUN), creatine (Cr), asparatate aminotransferase (AST), and alanine aminotransferase (ALT) levels were determined by Beckman LX20 (Beckman-Coulter, U.S.A.)

`O=C1C=CC(O)(c2cc(=O)c3c(O)cc(O)cc3o2)C=C1` [protoapigenone] gave an IC50 (T47D) of 5.13 ± 0.23 µM, an IC50 (MDA-MB-468) of 3.33 ± 1.25 µM and an IC50 (SKOV3 [1]) of 0.78 ± 0.28 µM. For the same compound, the IC50 ([2]; HOSE 6-3 immortalized ovarian epithelial cells, immortalized human ovarian epithelial cells HOSE 6-3) was 8.98 ± 0.33 µM, the IC50 ([2]; HOSE 11-12 immortalized ovarian epithelial cells, immortalized human ovarian epithelial cells HOSE 11-12) was 10.1 ± 0.53 µM and the IC50 ([2]; MCF-10A immortalized breast epithelial cells, immortalized human breast epithelial cell MCF-10A) was 33.6 ± 0.53 µM. The IC50 (HeLa [3]) was 3.66 ± 0.61 µM, the IC50 (C33A) was 4.69 ± 0.21 µM and the cell cycle distribution (HeLa [4]) was “arrested at G2/M phase”. For the same compound, the “ratio of TUNEL positive cells” value (LNCap) was “increased along with time and the increased protoapigenone concentrations”, the “ratio of colony formation” value (MDAH-2774 [5]) was “decrease along with the increased protoapigenone concentrations” and the cell cycle distribution (LNCap cells) was “arrests the LNCap cells at S and G2/M phases”. For the same compound, the “apoptotic sub-G1 peak” value (SKOV3 [6]) was “increases the apoptotic sub-G1 peak”, the cell cycle distribution (SKOV3 [6]; various concentrations) was “enter into S and G2/M phases” and the “apoptotic sub-G1 peak” value (MDAH-2774 [7]) was “increases the apoptotic sub-G1 peak”. The cell cycle distribution (MDAH-2774 [7]; various concentrations) was “enter into S and G2/M phases” and the “tumor growth of MDAH-2774 cells vs PBS control” value [8] was “significantly suppressed”.
